Literature values, collected in patent publication US20080286370A1, “Nanoscale Particles Used as Contrasting Agents in Magnetic Resonance Imaging” (priority 2005, published 2008).

Experiments:
[1] = copper or zinc
[2] = in vivo
[3] = human, in vivo

exchange of gadolinium with endogenic metal ions [1]: less than 1%
eliminated [2]: 75%
patients who suffered from nausea [3]: 8
patients who suffered from vomiting [3]: 5
pseudohypocalcaemia [3]: has not caused pseudohypocalcaemia
systemic osmolality effects [3]: negligible
temperature, headaches, an unwell feeling, skin rash and an unpleasant taste in the mouth [3]: less than 0.15%
total rate of nausea and vomiting [3]: 0.31%
Compound: O=C([O-])CN1CCN(CC(=O)[O-])CCN(CC(=O)O)CCN(CC(=O)[O-])CC1.[Gd+3] [Gd-DOTA, gadoteric acid]
passage through the blood/brain barrier [2]: do not pass through the blood/brain barrier
adverse effect on vital parameters or renal function [3]: absolutely no adverse effect
side-effect rate [3]: 0.84-0.97%
